Measurements taken from patent US4229448A, “5-Substituted picolinic acid derivatives and an anti-hypertensive composition containing the same” (Meuji Seika Kaisha Ltd., priority 1978, dated 1980).
Where a name gives a salt, the structure may show the parent alone.

Tests used:
[1] = Acute toxicity (LD50), intraperitoneal (Table 1); assay type: in vivo; conditions: mouse, in vivo, ip, male ICR mice, 5 week old, observed 1 week after administration
[2] = tested on: spontaneously hypertensive rats; assay: Blood pressure changes, Direct Blood Pressure Measuring Method, oral administration (Table 1); assay type: in vivo; conditions: Rattus norvegicus, read-out: Maximum Depression in Blood Pressure
Procedure: Each of the compounds of the invention as indicated below was suspended in a 5% aqueous gum arabic solution and the suspension was administered orally (100 mg/kg) to groups consisting of three spontaneously hypertensive rats (18-23 week old; blood pressure before administration: 170-190 mmHg).

[3] = tested on: spontaneously hypertensive rats; assay: Blood pressure changes, Tail Cuff Method, oral administration (Table 2); assay type: in vivo; conditions: Rattus norvegicus, 100 mg/kg orally, read-out: Maximum Depression in Blood Pressure
Procedure: Each of the compounds of the invention as indicated below was suspended in a 5% aqueous gum arabic solution and the suspension was administered orally to groups consisting of three spontaneously hypertensive rats (17-23 week old; blood pressure before administration: 170-190 mmHg).

Oral LD50 = conditions: in vivo
[4] = tested on: male mice (ICR strain, 5 week old); assay: Acute toxicity (LD50), intraperitoneal (Table 1); assay type: in vivo; conditions: observed 1 week after administration, 10080 min
[5] = prior art; cited from earlier work
[6] = prior art; cited from earlier work; remark: listed apart in the source
Water solubility = assay type: physicochemical; conditions: suited for subcutaneous injection
[7] = 100 mg/kg orally, spontaneously hypertensive rats, Direct Blood Pressure Measuring Method

Compound: Cc1ccc(Oc2ccc(C(=O)O)nc2)c(C)c1 [5-(2,4-Dimethylphenoxy)picolinic Acid]
- LD50 at 168 h [1]: 250 to 300 mg/kg
- inhibition in vivo at 100 mg/kg [2, 7]: 16.9%

Compound: O=C(Oc1ccc2c(c1)CCC2)c1ccc(Oc2ccccc2Cl)cn1 [indanyl ester of 5-(o-chlorophenoxy)picolinic acid]
- inhibition in vivo at 100 mg/kg [3]: 29%

Compound: O=C(O)c1ccc(OCCCCl)cn1 [5-(3-Chloropropoxy)picolinic Acid, 5-(3-chloropropoxy)picolinic acid]
- LD50 at 168 h [1]: 150 to 200 mg/kg
- inhibition in vivo at 100 mg/kg [2, 7]: 18.2%

Compound: CC(OC(=O)c1ccc(Oc2ccc(Cl)cc2)cn1)OC(=O)C(C)(C)C (stereo not drawn) [α-pivaloyloxyethyl ester of 5-(p-chlorophenoxy)picolinic acid]
- inhibition in vivo at 100 mg/kg [3]: 21.8%
- LD50 (Oral LD50): 900 to 1000 mg/kg

Compound: O=C(O)c1ccc(Oc2cccc(Cl)c2)cn1 [5-(m-Chlorophenoxy)picolinic Acid, 5-(m-chlorophenoxy)picolinic acid]
- LD50 at 168 h [1]: 300 to 400 mg/kg
- inhibition in vivo at 100 mg/kg [2, 7]: 16.7%

Compound: O=C(O)c1ccc(OCCCCC(F)(F)F)cn1 [5-(5,5,5-Trifluoropentyloxy)picolinic Acid] [5-(5,5,5-trifluoropentyloxy)picolinicacid]
- Acute Toxicity (LD50) [4]: 150 to 200 mg/kg

Compound: O=C(Oc1ccc2c(c1)CCC2)c1ccc(Oc2ccc(Cl)cc2)cn1 [indanyl ester of 5-(p-chlorophenoxy)picolinic acid]
- inhibition in vivo at 100 mg/kg [3]: 27.5%
- LD50 (Oral LD50): 700 to 800 mg/kg

Compound: O=C(O)c1ccc(OCCCCC(F)(F)F)cn1 [Calcium Salt of 5-(5,5,5-Trifluoropentyloxy)picolinic Acid] [Calcium 5-(5,5,5-trifluoropentyloxy)picolinate]
- Acute Toxicity (LD50) [4]: 800 to 900 mg/kg

Compound: CCCCc1ccc(C(=O)O)nc1 [Fusaric Acid, 5-n-butylpicolinic acid, reference compound]
- anti-hypertensive activity (in words) [5]: useful as an anti-hypertensive agent
- LD50 at 168 h [1]: 75 to 100 mg/kg
- LD50 value (in words) [6]: low LD50 value
- inhibition in vivo at 100 mg/kg [2]: 15.8%

Compound: O=C(O)c1ccc(OCCCCC(F)(F)F)cn1 [5-(5,5,5-trifluoropentyloxy)picolinicacid]
- inhibition in vivo at 100 mg/kg [2, 7]: 28.7%

Compound: O=C(Oc1ccc2c(c1)CCC2)c1ccc(OCCCCCl)cn1 [5-indanyl ester of 5-(4-chlorobutoxy)picolinic acid]
- inhibition in vivo at 100 mg/kg [3]: 26.3%
- LD50 (Oral LD50): 1600 to 1800 mg/kg

Compound: NC(=O)c1ccc(OCCCCCl)cn1 [5-(4-Chlorobutoxy)picolinic Acid Amide, 5-(4-chlorobutoxy)picolinic acid amide]
- inhibition in vivo at 100 mg/kg [3]: 21.5%
- LD50 (Oral LD50): 1500 to 1600 mg/kg

Compound: O=C(O)c1ccc(OCCCCCl)cn1 [Calcium Salt of 5-(4-Chlorobutoxy)picolinic Acid] [Calcium 5-(4-chlorobutoxy)picolinate]
- Acute Toxicity (LD50) [4]: 800 to 1000 mg/kg

Compound: O=C(O)c1ccc(Oc2ccccc2C(F)(F)F)cn1 [5-(o-trifluoromethylphenoxy)picolinic acid]
- LD50 at 168 h [1]: 150 to 200 mg/kg
- inhibition in vivo at 100 mg/kg [2, 7]: 27.6%
- LD50 (Oral LD50): 400 to 600 mg/kg

Compound: COc1ccc(Oc2ccc(C(=O)O)nc2)cc1 [5-(p-Methoxyphenoxy)picolinic Acid, 5-(p-methoxyphenoxy)picolinic acid]
- LD50 at 168 h [1]: 500 to 600 mg/kg
- inhibition in vivo at 100 mg/kg [2, 7]: 14.2%

Compound: O=C(O)c1ccc(Oc2ccc(Br)cc2)cn1 [5-(p-Bromophenoxy)picolinic Acid, 5-(p-bromophenoxy)picolinic acid]
- LD50 at 168 h [1]: 150 to 200 mg/kg
- inhibition in vivo at 100 mg/kg [2, 7]: 27.5%

Compound: Cc1ccc(Oc2ccc(C(=O)O)nc2)cc1 [5-(p-Methylphenoxy)picolinic Acid, 5-(p-methylphenoxy)picolinic acid]
- LD50 at 168 h [1]: 200 to 300 mg/kg
- inhibition in vivo at 100 mg/kg [2, 7]: 17%

Compound: O=C(O)c1ccc(Oc2c(Cl)cccc2Cl)cn1 [5-(2,6-Dichlorophenoxy)picolinic Acid]
- LD50 at 168 h [1]: 150 to 200 mg/kg
- inhibition in vivo at 100 mg/kg [2, 7]: 23.7%

Compound: O=C(O)c1ccc(OCCCCCl)cn1 [5-(4-Chlorobutoxy)picolinic Acid, 5-(4-chlorobutoxy)picolinic acid]
- Acute Toxicity (LD50) [4]: 150 to 200 mg/kg
- inhibition in vivo at 100 mg/kg [2, 7]: 23%
- LD50 (Oral LD50): 900 mg/kg

Compound: CN(C)CCOC(=O)c1ccc(OCCCCCl)cn1 [dimethylaminoethyl ester of 5-(4-chlorobutoxy)picolinic acid hydrochloride]
- water solubility (Water solubility): increased water solubility

Compound: NC(=O)c1ccc(Oc2ccccc2C(F)(F)F)cn1 [5-(o-trifluoromethylphenoxy)picolinic acid amide]
- inhibition in vivo at 100 mg/kg [3]: 20.7%
- LD50 (Oral LD50): 950 mg/kg

Compound: NC(=O)c1ccc(Oc2ccc(Cl)cc2)cn1 [5-(p-Chlorophenoxy)picolinic Acid Amide, 5-(p-chlorophenoxy)picolinic acid amide]
- inhibition in vivo at 100 mg/kg [3]: 23.7%

Compound: O=C(O)c1ccc(Oc2ccc(Cl)cc2)cn1 [Calcium Salt of 5-(p-Chlorophenoxy)picolinic Acid]
- Acute Toxicity (LD50) [4]: 350 to 400 mg/kg

Compound: O=C(O)c1ccc(Oc2ccccc2Cl)cn1 [5-(o-Chlorophenoxy)picolinic Acid, 5-(o-chlorophenoxy)picolinic acid]
- LD50 at 168 h [1]: 150 to 200 mg/kg
- inhibition in vivo at 100 mg/kg [2, 7]: 30.1%
- LD50 (Oral LD50): 400 to 600 mg/kg

Compound: O=C(O)c1ccc(Oc2ccc(C(F)(F)F)cc2)cn1 [5-(p-trifluoromethylphenoxy)picolinic acid]
- LD50 at 168 h [1]: 200 to 250 mg/kg
- inhibition in vivo at 100 mg/kg [2, 7]: 29.3%

Compound: CCCCOc1ccc(C(=O)O)nc1 [5-n-Butoxy-picolinic Acid, reference compound]
- LD50 at 168 h [1]: 100 to 150 mg/kg
- inhibition in vivo at 100 mg/kg [2, 7]: 16.6%

Compound: CCOC(=O)c1ccc(Oc2ccc(Cl)cc2)cn1 [ethyl ester of 5-(p-chlorophenoxy)picolinic acid]
- inhibition in vivo at 100 mg/kg [3]: 23.3%

Compound: CC(=O)c1ccc(Oc2ccc(C(=O)O)nc2)cc1 [5-(p-Acetylphenoxy)picolinic Acid]
- LD50 at 168 h [1]: 400 to 500 mg/kg
- inhibition in vivo at 100 mg/kg [2, 7]: 17.3%

Compound: O=C(O)c1ccc(Oc2ccc(Cl)cc2Cl)cn1 [5-(2,4-Dichlorophenoxy)picolinic Acid]
- LD50 at 168 h [1]: 150 to 200 mg/kg
- inhibition in vivo at 100 mg/kg [2, 7]: 24.6%

Compound: O=C(O)c1ccc(Oc2ccc(Cl)cc2)cn1 [5-(p-Chlorophenoxy)picolinic Acid, 5-(p-chlorophenoxy)picolinic acid]
- Acute Toxicity (LD50) [4]: 150 to 200 mg/kg
- inhibition in vivo at 100 mg/kg [2, 7]: 28.3%
- LD50 (Oral LD50): 400 to 600 mg/kg

Compound: O=C(O)c1ccc(Oc2ccc(C(F)(F)F)cc2C(F)(F)F)cn1 [5-(2,4-Ditrifluoromethylphenoxy)picolinic Acid]
- LD50 at 168 h [1]: 200 to 250 mg/kg
- inhibition in vivo at 100 mg/kg [2, 7]: 25.5%

Compound: O=C(O)c1ccc(Oc2cccc(C(F)(F)F)c2)cn1 [5-(m-trifluoromethylphenoxy)picolinic acid]
- LD50 at 168 h [1]: 500 to 600 mg/kg
- inhibition in vivo at 100 mg/kg [2, 7]: 20.8%

Compound: Cl.Cl.Nc1ccc(Oc2ccc(C(=O)O)nc2)cc1 [5-(p-aminophenoxy)picolinic acid dihydrochloride]
- LD50 at 168 h [1]: 450 to 500 mg/kg
- inhibition in vivo at 100 mg/kg [2, 7]: 8.3%

Compound: O=C(O)c1ccc(Oc2ccc([N+](=O)[O-])cc2)cn1 [5-(p-Nitrophenoxy)picolinic Acid, 5-(p-nitrophenoxy)picolinic acid]
- LD50 at 168 h [1]: 500 to 600 mg/kg
- inhibition in vivo at 100 mg/kg [2, 7]: 15.1%

Compound: NC(=O)c1ccc(Oc2ccccc2Cl)cn1 [5-(o-Chlorophenoxy)picolinic Acid Amide]
- inhibition in vivo at 100 mg/kg [3]: 19.6%

Compound: COc1ccc(Oc2ccc(C(=O)O)nc2)c(OC)c1 [5-(2,4-Dimethoxyphenoxy)picolinic Acid]
- LD50 at 168 h [1]: 400 to 450 mg/kg
- inhibition in vivo at 100 mg/kg [2, 7]: 19.2%

Compound: O=C(Oc1ccc2c(c1)CCC2)c1ccc(Oc2ccccc2C(F)(F)F)cn1 [Indanyl Ester of 5-(o-Trifluoromethylphenoxy)picolinic Acid]
- inhibition in vivo at 100 mg/kg [3]: 26.3%
